According to patent US20240180923A1, “METHODS OF TREATING DISORDERS WITH ULK INHIBITORS” (Deciphera Pharmaceuticals, LLC, priority 2022, published 2024):
Each block holds one molecule with its values, some of them ahead of it.

How the values were obtained:
[1] = Nude mouse PK study with adagrasib and DCC-3116 treatment; assay type: in vivo; conditions: for AUC(0-t) / Cmax: female, athymic nude, mouse, plasma, po; for AUC(0-t): read-out: adagrasib AUC0-2 h (average); for Cmax: read-out: adagrasib Cmax in plasma (average)
Experimental: The nude mouse PK study was performed at Attentive Science (Stilwell, KS), an AAALAC accredited facility. Food and water were provided ad libitum. […] Female athymic nude mice (n=3 per group) were dosed for 5 consecutive days. […] At 0, 0.5, and 2 h post final dose blood samples were collected from mice from each group. Blood samples were collected in K2EDTA tubes and processed into plasma, then stored at −20° C. Plasma samples were subjected to pharmacokinetic analysis using liquid chromatography coupled with tandem mass spectrometry analysis.

[2] = tested on: ULK; assay: pATG13 ELISA in GIST-T1 cells, DCC-3116 with binimetinib and/or ripretinib; assay type: cell-based; conditions: GIST-T1 cell line, FIG. 10
Experimental: A substrate solution for HRP was added and the absorbance was measured using a plate reader. Data was plotted in GraphPad Prism and fit to a sigmoidal dose response curve to generate IC50 values.

[3] = MiaPaca-2 xenograft PK/PD model: sotorasib plasma PK with DCC-3116; assay type: in vivo, mouse; conditions: for AUC(0-t) / Cmax: female, Envigo Nude, mouse, plasma, po, 10 mg/kg
Experimental: The MiaPaca-2 xenograft model was performed in compliance with all the laws, regulations and guidelines of the National Institutes of Health (NIH) and with the approval of the Animal Care and Use Committee of Labcorp (Ann Arbor, MI), an AAALAC accredited facility. Food and water were provided ad libitum. […] Female Envigo Nude mice (6-7 weeks old) were inoculated subcutaneously just below the right high axilla with ten million cells in Dulbecco's Phosphate Buffered Saline with 50% Matrigel, using a 27-gauge needle and syringe. When tumor burdens reached 182 mm^3 on average on day 6, mice were randomly assigned into groups such that the mean tumor burden for all groups was within 10% of the overall mean tumor burden for the study population. […] At 2 h post final dose in the vehicle group, and 2, 6, and 10 h post final dose in the treatment groups, 3 mice from each group were sacrificed for tumor and plasma sampling. Blood samples were collected in K2EDTA tubes and processed into plasma, snap frozen in liquid nitrogen then stored at −80° C. Plasma samples were subjected to pharmacokinetic analysis using liquid chromatography coupled with tandem mass spectrometry analysis (Cayman Chemical, Ann Arbor, MI). Tumors were harvested and powdered over liquid nitrogen in covaris bags and stored at −80° C.

[4] = 25 mg/kg, adagrasib in combination with 25 mg/kg DCC-3116 (first statement)
[5] = 25 mg/kg, adagrasib in combination with 25 mg/kg DCC-3116 (second statement)
[6] = 100 mg/kg, adagrasib 100 mg/kg PO QD single agent, 5 days
[7] = 10 mg/kg sotorasib + 10 mg/kg DCC-3116
[8] = 10 mg/kg sotorasib + 25 mg/kg DCC-3116
[9] = 10 mg/kg sotorasib + 100 mg/kg DCC-3116
[10] = 10 mg/kg sotorasib as a single agent

- differences in adagrasib Cmax and AUC0-2 h amongst groups ([1]; adagrasib alone versus with DCC-3116): not statistically significant
- AUC(0-t) [1, 4]: 2970 ng·h/mL
- Cmax [1, 4]: 1880 ng/mL
- AUC(0-t) [1, 5]: 3560 ng·h/mL
- Cmax [1, 5]: 2060 ng/mL
- AUC(0-t) [1, 6]: 4230 ng·h/mL
- Cmax [1, 6]: 2530 ng/mL
Compound: C=C(F)C(=O)N1CCN(c2nc(OC[C@@H]3CCCN3C)nc3c2CCN(c2cccc4cccc(Cl)c24)C3)C[C@@H]1CC#N [adagrasib, reference compound]

Compound: Cn1cnc2c(F)c(Nc3ccc(Br)cc3F)c(C(=O)NOCCO)cc21 [binimetinib]
- effect on ULK activity [2]: induces ULK Activity

- AUC(0-t) [3, 7]: 344 ng·h/mL
- Cmax [3, 7]: 76 ng/mL
- AUC(0-t) [3, 8]: 727 ng·h/mL
- Cmax [3, 8]: 170 ng/mL
- AUC(0-t) [3, 9]: 385 ng·h/mL
- Cmax [3, 9]: 74 ng/mL
- AUC(0-t) [3, 10]: 963 ng·h/mL
- Cmax [3, 10]: 296 ng/mL
- differences in sotorasib Cmax and AUC0-10 h amongst groups ([3]; sotorasib alone versus with DCC-3116): not statistically significant
Compound: C=CC(=O)N1CCN(c2nc(=O)n(-c3c(C)ccnc3C(C)C)c3nc(-c4c(O)cccc4F)c(F)cc23)[C@@H](C)C1 [sotorasib]
